Assay results: PubChem BioAssay AID226 (DTP/NCI, 2004)
Where “and” joins values, the source holds several entries; their conditions need not be identical. Identical values can stand only once. Toxic doses and inconclusive results are not listed.

Tested on: B6C3F1 mice, intracerebral ependymoblastoma, median survival T/C
Assay: NCI In Vivo Anticancer Drug Screen. Data for tumor model Ependymoblastoma (intracerebral) in B6C3F1 mice
Conditions: endpoint: median survival time, higher = longer survival
Description: The antitumor activity of compounds was measured in mice bearing transplantable tumors. Survival or tumor size were measured and the results are expressed as the measurement made in the treated group (T) divided by the measurement made in the vehicle treated control group (C). The tumor model used in this assay is Ependymoblastoma (intracerebral) in B6C3F1 mice

[1] = dose: 1.0 mg/kg/injection, schedule: Q01DX005 (ip), vehicle: Klucel (hydroxypropylcellulose) (HPC)
[2] = dose: 2.0 mg/kg/injection, schedule: Q01DX005 (ip), vehicle: Klucel (hydroxypropylcellulose) (HPC)
[3] = dose: 4.0 mg/kg/injection, schedule: Q01DX005 (ip), vehicle: saline with Tween-80
[4] = dose: 8.0 mg/kg/injection, schedule: Q01DX005 (ip), vehicle: Klucel (hydroxypropylcellulose) (HPC)
[5] = dose: 8.0 mg/kg/injection, schedule: Q01DX005 (ip), vehicle: saline with Tween-80
[6] = dose: 16.0 mg/kg/injection, schedule: Q01DX005 (ip), vehicle: Klucel (hydroxypropylcellulose) (HPC)
[7] = dose: 16.0 mg/kg/injection, schedule: Q01DX005 (ip), vehicle: saline with Tween-80
[8] = dose: 32.0 mg/kg/injection, schedule: Q01DX005 (ip), vehicle: Klucel (hydroxypropylcellulose) (HPC)
[9] = dose: 32.0 mg/kg/injection, schedule: Q01DX005 (ip), vehicle: saline with Tween-80
[10] = dose: 64.0 mg/kg/injection, schedule: Q01DX005 (ip), vehicle: Klucel (hydroxypropylcellulose) (HPC)
[11] = dose: 64.0 mg/kg/injection, schedule: Q01DX005 (ip), vehicle: saline with Tween-80
[12] = dose: 128.0 mg/kg/injection, schedule: Q01DX005 (ip), vehicle: saline with Tween-80

COc1ccc(CC2C(=O)NC(C)C(=O)N(C)C3C(=O)N(C)C(Cc4ccc(O)c(c4)Oc4ccc(cc4)C3O)C(=O)NC(C)C(=O)NC(C)C(=O)N2C)cc1 (centres undefined)
T/C (dose: 0.25 mg/kg/injection, schedule: Q01DX005 (ip), vehicle: Klucel (hydroxypropylcellulose) (HPC)): 103 % of control | T/C (dose: 0.25 mg/kg/injection, schedule: Q01DX005 (ip), vehicle: saline with Tween-80): 105 % of control | T/C (dose: 0.5 mg/kg/injection, schedule: Q01DX005 (ip), vehicle: Klucel (hydroxypropylcellulose) (HPC)): 107 % of control | T/C (dose: 0.5 mg/kg/injection, schedule: Q01DX005 (ip), vehicle: saline with Tween-80): 114 % of control | T/C [1]: 106 % of control | T/C (dose: 1.0 mg/kg/injection, schedule: Q01DX005 (ip), vehicle: saline with Tween-80): 113 % of control | T/C [2]: 96 % of control | T/C (dose: 2.0 mg/kg/injection, schedule: Q01DX005 (ip), vehicle: saline with Tween-80): 114 % of control | T/C [3]: 97 % of control

C[C@]12C=CC(=O)C=C1CC[C@@H]1[C@@H]2CC[C@]2(C)OC(=O)CC[C@@H]12
T/C [4]: 98 % of control and 100 % of control | T/C [5]: 100 % of control and 113 % of control | T/C [6]: 101 % of control and 106 % of control | T/C [7]: 97 % of control and 110 % of control | T/C [8]: 94 % of control and 95 % of control | T/C [9]: 97 % of control and 105 % of control | T/C [10]: 98 % of control and 101 % of control | T/C [11]: 97 % of control and 105 % of control | T/C (dose: 128.0 mg/kg/injection, schedule: Q01DX005 (ip), vehicle: Klucel (hydroxypropylcellulose) (HPC)): 96 % of control and 86 % of control | T/C [12]: 96 % of control and 108 % of control | T/C (dose: 256.0 mg/kg/injection, schedule: Q01DX005 (ip), vehicle: Klucel (hydroxypropylcellulose) (HPC)): 90 % of control | T/C (dose: 256.0 mg/kg/injection, schedule: Q01DX005 (ip), vehicle: saline with Tween-80): 105 % of control

CCN(CC)CCOc1ccc(/C(=C(\Cl)c2ccccc2)c2ccccc2)cc1
T/C (dose: 8.0 mg/kg/injection, schedule: Q01DX005 (ip), vehicle: saline): 101 % of control and 106 % of control | T/C (dose: 16.0 mg/kg/injection, schedule: Q01DX005 (ip), vehicle: saline): 93 % of control and 100 % of control | T/C (dose: 32.0 mg/kg/injection, schedule: Q01DX005 (ip), vehicle: saline): 92 % of control and 103 % of control | T/C (dose: 64.0 mg/kg/injection, schedule: Q01DX005 (ip), vehicle: saline): 101 % of control and 104 % of control

Cc1nc(N)nc(N)c1-c1ccc(Cl)c(Cl)c1
T/C (dose: 1.25 mg/kg/injection, schedule: Q01DX005 (ip), vehicle: saline): 106 % of control | T/C (dose: 2.5 mg/kg/injection, schedule: Q01DX005 (ip), vehicle: saline): 102 % of control | T/C (dose: 5.0 mg/kg/injection, schedule: Q01DX005 (ip), vehicle: saline): 120 % of control

NS(=O)(=O)c1cc2c(cc1Cl)NC=NS2(=O)=O
T/C (dose: 37.5 mg/kg/injection, schedule: Q01DX005 (ip), vehicle: Klucel (hydroxypropylcellulose) (HPC)): 109 % of control | T/C (dose: 75.0 mg/kg/injection, schedule: Q01DX005 (ip), vehicle: Klucel (hydroxypropylcellulose) (HPC)): 96 % of control | T/C (dose: 150.0 mg/kg/injection, schedule: Q01DX005 (ip), vehicle: Klucel (hydroxypropylcellulose) (HPC)): 90 % of control | T/C (dose: 300.0 mg/kg/injection, schedule: Q01DX005 (ip), vehicle: Klucel (hydroxypropylcellulose) (HPC)): 107 % of control | T/C (dose: 600.0 mg/kg/injection, schedule: Q01DX005 (ip), vehicle: Klucel (hydroxypropylcellulose) (HPC)): 102 % of control

CN(C)CCCNc1c2ccccc2nc2cccc([N+](=O)[O-])c12
T/C (dose: 0.06 mg/kg/injection, schedule: Q01DX001 (oral), vehicle: saline): 102 % of control | T/C (dose: 0.06 mg/kg/injection, schedule: Q01DX005 (ip), vehicle: saline): 103 % of control and 105 % of control and 112 % of control | T/C (dose: 0.12 mg/kg/injection, schedule: Q01DX001 (oral), vehicle: saline): 98 % of control | T/C (dose: 0.12 mg/kg/injection, schedule: Q01DX005 (ip), vehicle: saline): 92 % of control | T/C (dose: 0.13 mg/kg/injection, schedule: Q01DX005 (ip), vehicle: saline): 102 % of control | T/C (dose: 0.25 mg/kg/injection, schedule: Q01DX001 (oral), vehicle: saline): 103 % of control | T/C (dose: 0.5 mg/kg/injection, schedule: Q01DX001 (oral), vehicle: saline): 100 % of control | T/C (dose: 1.0 mg/kg/injection, schedule: Q01DX001 (oral), vehicle: saline): 108 % of control | T/C (dose: 2.0 mg/kg/injection, schedule: Q01DX001 (oral), vehicle: saline): 108 % of control | T/C (dose: 4.0 mg/kg/injection, schedule: Q01DX001 (oral), vehicle: saline): 103 % of control | T/C (dose: 16.0 micrograms/kg/injection, schedule: Q01DX005 (ip), vehicle: saline): 100 % of control and 110 % of control | T/C (dose: 32.0 micrograms/kg/injection, schedule: Q01DX005 (ip), vehicle: saline): 100 % of control and 102 % of control | T/C (dose: 63.0 micrograms/kg/injection, schedule: Q01DX005 (ip), vehicle: saline): 97 % of control and 104 % of control | T/C (dose: 125.0 micrograms/kg/injection, schedule: Q01DX005 (ip), vehicle: saline): 100 % of control and 106 % of control

O=C(NC1CCCCC1)OCc1c(COC(=O)NC2CCCCC2)c(-c2ccc(Cl)c(Cl)c2)n2c1CCC2
T/C (dose: 50.0 mg/kg/injection, schedule: Q01DX005 (ip), vehicle: saline with Tween-80): 99 % of control and 102 % of control | T/C (dose: 100.0 mg/kg/injection, schedule: Q01DX005 (ip), vehicle: saline with Tween-80): 92 % of control and 108 % of control | T/C (dose: 200.0 mg/kg/injection, schedule: Q01DX005 (ip), vehicle: saline with Tween-80): 104 % of control and 115 % of control | T/C (dose: 400.0 mg/kg/injection, schedule: Q01DX005 (ip), vehicle: saline with Tween-80): 115 % of control and 118 % of control | T/C (dose: 800.0 mg/kg/injection, schedule: Q01DX005 (ip), vehicle: saline with Tween-80): 106 % of control and 110 % of control

O=NN(CCF)C(=O)NC1CCCCC1
T/C (dose: 5.1 mg/kg/injection, schedule: Q01DX001 (ip), vehicle: other): 106 % of control | T/C (dose: 5.18 mg/kg/injection, schedule: Q01DX005 (ip), vehicle: Klucel (hydroxypropylcellulose) (HPC)): 184 % of control | T/C (dose: 8.64 mg/kg/injection, schedule: Q01DX005 (ip), vehicle: Klucel (hydroxypropylcellulose) (HPC)): 357 % of control | T/C (dose: 10.2 mg/kg/injection, schedule: Q01DX001 (ip), vehicle: other): 123 % of control | T/C (dose: 13.0 mg/kg/injection, schedule: Q01DX001 (ip), vehicle: Klucel (hydroxypropylcellulose) (HPC)): 153 % of control | T/C (dose: 14.4 mg/kg/injection, schedule: Q01DX005 (ip), vehicle: Klucel (hydroxypropylcellulose) (HPC)): 357 % of control | T/C (dose: 20.4 mg/kg/injection, schedule: Q01DX001 (ip), vehicle: other): 160 % of control | T/C (dose: 21.6 mg/kg/injection, schedule: Q01DX001 (ip), vehicle: Klucel (hydroxypropylcellulose) (HPC)): 216 % of control | T/C (dose: 24.0 mg/kg/injection, schedule: Q01DX005 (ip), vehicle: Klucel (hydroxypropylcellulose) (HPC)): 357 % of control | T/C (dose: 36.0 mg/kg/injection, schedule: Q01DX001 (ip), vehicle: Klucel (hydroxypropylcellulose) (HPC)): 363 % of control | T/C (dose: 40.7 mg/kg/injection, schedule: Q01DX001 (ip), vehicle: other): 220 % of control | T/C (dose: 60.0 mg/kg/injection, schedule: Q01DX001 (ip), vehicle: Klucel (hydroxypropylcellulose) (HPC)): 363 % of control | T/C (dose: 81.4 mg/kg/injection, schedule: Q01DX001 (ip), vehicle: other): 331 % of control | T/C (dose: 100.0 mg/kg/injection, schedule: Q01DX001 (ip), vehicle: Klucel (hydroxypropylcellulose) (HPC)): 333 % of control

NC(CO)(CO)CO
T/C (dose: 200.0 mg/kg/injection, schedule: Q01DX005 (ip), vehicle: saline): 98 % of control | T/C (dose: 400.0 mg/kg/injection, schedule: Q01DX005 (ip), vehicle: saline): 110 % of control | T/C (dose: 800.0 mg/kg/injection, schedule: Q01DX005 (ip), vehicle: saline): 105 % of control | T/C (dose: 1600.0 mg/kg/injection, schedule: Q01DX005 (ip), vehicle: saline): 110 % of control

CCOC(=O)C(CC(C)C)NC(=O)C(Cc1ccc(N(CCCl)CCCl)cc1)NC(C)=O (centres undefined)
T/C [1]: 87 % of control | T/C [2]: 95 % of control | T/C (dose: 4.0 mg/kg/injection, schedule: Q01DX005 (ip), vehicle: Klucel (hydroxypropylcellulose) (HPC)): 97 % of control and 106 % of control and 113 % of control | T/C [3]: 104 % of control and 108 % of control | T/C [4]: 97 % of control and 102 % of control and 107 % of control | T/C [5]: 101 % of control and 104 % of control | T/C [6]: 100 % of control and 102 % of control and 105 % of control | T/C [7]: 98 % of control and 105 % of control | T/C [8]: 105 % of control and 109 % of control and 110 % of control | T/C [9]: 106 % of control | T/C [10]: 115 % of control | T/C [11]: 163 % of control

C#CCN(C)/N=N/c1nc[nH]c1C(N)=O
T/C [9]: 150 % of control | T/C [12]: 157 % of control
